Non-standard residues stand in square brackets, D forms with d. Residues, ends and D or L forms follow the SMILES beside them. Nle = CCCC[C@H](N)C(=O)O

The assay relates to INS1 cells. Put plainly: Mitochondrial content / cellular mitochondrial mass by imaging. The assay is classed as cell-based. To be noted: INS1 cell line; 8 hours, 24 hours, and 72 hours; three concentrations; FIG. 9; normalized to DMSO. On the procedure: Cells were cultured on coverslips inside a Petri dish filled with the appropriate culture medium or grown directly into a four-chamber glass bottom dish and cells were subsequently imaged on the LSM880. At least 30 cells per condition per experiment were collected, at least three separate experiments were performed for imaging clonal cells. Image analysis was performed in the CellProfiler™ software (cellprofiler.org) to measure mitophagic events. Individual mitochondrial fluorescence intensity and area were measured in CellProfiler™ and imported into Microsoft Excel®. Mitochondria smaller than 2 pixels in area were not included in final analyses. Images were subjected to top hat filtering followed by global threshold Otsu method to segment mitochondria. To assess amount of mitochondrial content, green fluorescence intensity of objects identified as mitochondrial structures were quantitated. Data has been normalized to the control treatment, dimethyl sulfoxide (DMSO).

For the compound `CCCCOC(=O)NS(=O)(=O)c1ccc(OC(F)(F)F)cc1-c1ccc(Cn2ccnc2)cn1` [Compound 7], the “cellular mitochondrial mass (mitochondrial content)” value (“cellular mitochondrial mass” for short) is on record as “stable”.
Take `CCCC[C@H](NC(=O)[C@H](CCCNC(=N)N)NC(=O)[C@@H](N)CC(=O)O)C(=O)N[C@@H](Cc1ccc(O)cc1)C(=O)N[C@H](C(=O)N[C@@H](Cc1c[nH]cn1)C(=O)N1CCC[C@H]1C(=O)O)[C@@H](C)CC` [Nle^3-A(1-7), Asp-Arg-Nle-Tyr-Ile-His-Pro] (H-DR[Nle]YIHP-OH): the “cellular mitochondrial mass” value is given as “stable”.
As for `CC[C@H](C)[C@H](NC(=O)[C@H](Cc1ccc(O)cc1)NC(=O)[C@@H](NC(=O)[C@H](CCCNC(=N)N)NC(=O)[C@@H](N)CC(=O)O)C(C)C)C(=O)N[C@@H](Cc1c[nH]cn1)C(=O)N1CCC[C@H]1C(=O)O` [angiotensin(1-7), H-Asp-Arg-Val-Tyr-Ile-His-Pro-OH], the “cellular mitochondrial mass” value is “stable”.
